In patent US20050101595A1, “N-containing cycloalkyl-substituted amino-thiazole derivatives and pharmaceutical compositions for inhibiting cell proliferation and methods for their use” (PFIZER INC., priority 2003, published 2005):

Tests used:
[1] = biological target: CDK2/Cyclin A (Homo sapiens, UniProt P24941); assay: Inhibition of CDK2/Cyclin A Retinoblastoma Kinase Activity; assay type: biochemical; details: 0.03 μM compound; Table 3
In short: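 Baculovirus-expressed CDK2 complexed with proteolyzed cyclin A (10 or 19 nM), Rb fragment substrate, 25 μM [32P/33P]ATP, HEPES pH 7.4, 30 °C for 60 or 75 min under initial-rate conditions. Filter capture and phosphorimager readout; apparent Ki fitted to competitive or tight-binding competitive inhibition.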

[2] = tested on: HCT-116 cell line; assay: Inhibition of cell growth, tetrazolium salt (MTT) assay; assay type: cell-based; details: HCT-116, Table 3; for HCT-116 % Inhibition at 0.1 μM: 0.1 μM compound; for HCT-116 % Inhibition at 0.25 μM: 0.25 μM compound
In short: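 Growth inhibition by MTT reduction at 540 nm (0.2 mg/mL, 4 h at 37° C, formazan dissolved in DMSO), normalized to cells given only 0.5% v/v DMSO. HCT-116 cultures in McCoy's 5A were dosed 4 h post-plating and kept three to five days at 37° C, 5% CO2.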

[3] = biological target: human CDK4 and genetically truncated (1-264) cyclin D3 (Homo sapiens, UniProt P11802); assay: Inhibition of CDK4/Cyclin D Retinoblastoma Kinase Activity; assay type: biochemical; details: 0.03 μM compound; Table 3
Chain of human CDK4 and genetically truncated (1-264) cyclin D3 (P11802 whole entry, the tested form may be a part): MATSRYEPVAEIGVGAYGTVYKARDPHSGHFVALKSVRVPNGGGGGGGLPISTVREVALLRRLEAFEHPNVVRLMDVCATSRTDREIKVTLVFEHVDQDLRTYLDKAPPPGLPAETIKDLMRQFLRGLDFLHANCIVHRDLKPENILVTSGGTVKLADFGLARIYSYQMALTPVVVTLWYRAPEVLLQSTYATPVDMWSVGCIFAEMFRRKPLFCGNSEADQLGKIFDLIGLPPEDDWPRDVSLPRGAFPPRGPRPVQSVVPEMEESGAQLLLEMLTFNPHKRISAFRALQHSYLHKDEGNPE
Chain of human CDK4 and genetically truncated (1-264) cyclin D3 (P30281 1-264 partner): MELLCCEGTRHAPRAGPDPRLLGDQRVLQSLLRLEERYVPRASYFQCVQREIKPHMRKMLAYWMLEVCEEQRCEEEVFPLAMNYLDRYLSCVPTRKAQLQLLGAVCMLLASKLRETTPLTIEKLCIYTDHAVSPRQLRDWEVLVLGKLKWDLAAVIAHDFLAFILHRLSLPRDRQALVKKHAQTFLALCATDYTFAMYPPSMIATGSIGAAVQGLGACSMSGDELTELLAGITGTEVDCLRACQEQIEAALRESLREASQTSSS
In short: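 Human CDK4/truncated cyclin D3 (1-264) complex from baculovirus-infected insect cells, 5 nM, phosphorylating Rb fragment (residues 386-928, His-tagged) with 25 μM [32/33P]ATP in HEPES pH 7.4, MgCl2, 2% DMSO at 30° C. for 20 min (60 min for tight binders). Filter-captured radioactivity by phosphorimager; apparent Ki from competitive or tight-binding fits.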

SMILES	CDK2 % Inhibition at 0.03 μM [1] [%]	CDK4 % Inhibition at 0.03 μM [3] [%]	HCT-116 % Inhibition at 0.1 μM [2] [%]	HCT-116 % Inhibition at 0.25 μM [2] [%]
Nc1nc(NC2CCN(S(=O)(=O)/C=C/c3ccccc3)CC2)sc1C(=O)c1c(F)cccc1F [Example P26]	37	39	4	23
CCCCS(=O)(=O)N1CCC(Nc2nc(N)c(C(=O)c3c(F)cccc3F)s2)CC1 [Example P27]	16	41	4	23
COC(=O)c1ccccc1S(=O)(=O)N1CCC(Nc2nc(N)c(C(=O)c3c(F)cccc3F)s2)CC1 [Example P28]	55	56	7	28
Nc1nc(NC2CCN(S(=O)(=O)c3cccc(C(=O)O)c3)CC2)sc1C(=O)c1c(F)cccc1F [Example P29]	35	56	0	21
CCc1ccc(S(=O)(=O)N2CCC(Nc3nc(N)c(C(=O)c4c(F)cccc4F)s3)CC2)cc1 [Example P30]	53	61	9	17
CC(C)c1ccc(S(=O)(=O)N2CCC(Nc3nc(N)c(C(=O)c4c(F)cccc4F)s3)CC2)cc1 [Example P31]	40	50	3	16
Nc1nc(NC2CCN(S(=O)(=O)c3ccccc3F)CC2)sc1C(=O)c1c(F)cccc1F [Example P32]	58	59	13	28
Nc1nc(NC2CCN(S(=O)(=O)c3ccc(C(F)(F)F)cc3)CC2)sc1C(=O)c1c(F)cccc1F [Example P33]	56	59	6	32
Nc1nc(NC2CCN(S(=O)(=O)c3ccc(F)cc3F)CC2)sc1C(=O)c1c(F)cccc1F [Example P34]	60	58	8	23
Nc1nc(NC2CCN(S(=O)(=O)c3cc(Cl)sc3Cl)CC2)sc1C(=O)c1c(F)cccc1F [Example P35]	37	47	1	22
Nc1nc(NC2CCN(S(=O)(=O)c3ccc(Cl)s3)CC2)sc1C(=O)c1c(F)cccc1F [Example P36]	54	66	8	26
Cc1cccc(S(=O)(=O)N2CCC(Nc3nc(N)c(C(=O)c4c(F)cccc4F)s3)CC2)c1 [Example P37]	58	65	0	27
COc1ccc(S(=O)(=O)N2CCC(Nc3nc(N)c(C(=O)c4c(F)cccc4F)s3)CC2)cc1OC [Example P38]	73	74	15	35
Nc1nc(NC2CCN(S(=O)(=O)c3cccc(Cl)c3Cl)CC2)sc1C(=O)c1c(F)cccc1F [Example P39]	24	42	0	25
Nc1nc(NC2CCN(S(=O)(=O)c3ccc(CNC(=O)c4ccccc4)s3)CC2)sc1C(=O)c1c(F)cccc1F [Example P40]	61	64	7	33
Nc1nc(NC2CCN(S(=O)(=O)c3cc(S(=O)(=O)c4ccccc4)cs3)CC2)sc1C(=O)c1c(F)cccc1F [Example P41]	80	66	0	26
Nc1nc(NC2CCN(S(=O)(=O)c3ccc(S(=O)(=O)c4ccccc4)s3)CC2)sc1C(=O)c1c(F)cccc1F [Example P42]	55	62	3	19
Nc1nc(NC2CCN(S(=O)(=O)c3ccc(S(=O)(=O)c4ccc(C(F)(F)F)cn4)s3)CC2)sc1C(=O)c1c(F)cccc1F [Example P43]	70	57	0	17
Cn1nc(-c2ccc(S(=O)(=O)N3CCC(Nc4nc(N)c(C(=O)c5c(F)cccc5F)s4)CC3)s2)cc1C(F)(F)F [Example P44]	55	62	0	25
Nc1nc(NC2CCN(S(=O)(=O)c3ccc(-c4ccccn4)s3)CC2)sc1C(=O)c1c(F)cccc1F [Example P45]	65	82	14	27
Nc1nc(NC2CCN(S(=O)(=O)c3cccc(Br)c3)CC2)sc1C(=O)c1c(F)cccc1F [Example P46]	59	68	10	20
N#Cc1ccc(S(=O)(=O)N2CCC(Nc3nc(N)c(C(=O)c4c(F)cccc4F)s3)CC2)cc1 [Example P47]	81	82	0	26

Further lines, with some results ahead:

CDK2 % Inhibition at 0.03 μM [1] [%]	CDK4 % Inhibition at 0.03 μM [3] [%]	SMILES	HCT-116 % Inhibition at 0.1 μM [2] [%]	HCT-116 % Inhibition at 0.25 μM [2] [%]
59	67	N#Cc1ccccc1S(=O)(=O)N1CCC(Nc2nc(N)c(C(=O)c3c(F)cccc3F)s2)CC1 [Example P48]	24	31
36	54	CCCCOc1ccc(S(=O)(=O)N2CCC(Nc3nc(N)c(C(=O)c4c(F)cccc4F)s3)CC2)cc1 [Example P49]	10	32
30	35	Cc1nn(C)c(Cl)c1S(=O)(=O)N1CCC(Nc2nc(N)c(C(=O)c3c(F)cccc3F)s2)CC1 [Example P50]	14	25
3	27	Cc1noc(C)c1S(=O)(=O)N1CCC(Nc2nc(N)c(C(=O)c3c(F)cccc3F)s2)CC1 [Example P51]	18	21
49	47	N#Cc1c(Cl)cccc1Oc1ccc(S(=O)(=O)N2CCC(Nc3nc(N)c(C(=O)c4c(F)cccc4F)s3)CC2)cc1 [Example P52]	16	22
−23	16	CS(=O)(=O)CS(=O)(=O)N1CCC(Nc2nc(N)c(C(=O)c3c(F)cccc3F)s2)CC1 [Example P53]	21	27
17	34	Nc1nc(NC2CCN(S(=O)(=O)c3cc(OCC(F)(F)F)ccc3OCC(F)(F)F)CC2)sc1C(=O)c1c(F)cccc1F [Example P54]	22	23
43	52	Nc1nc(NC2CCN(S(=O)(=O)c3ccc(F)cc3Cl)CC2)sc1C(=O)c1c(F)cccc1F [Example P55]	20	25
21	26	COc1ccc(Cl)cc1S(=O)(=O)N1CCC(Nc2nc(N)c(C(=O)c3c(F)cccc3F)s2)CC1 [Example P56]	20	34
23	6	Nc1nc(NC2CCN(S(=O)(=O)c3c(Cl)cc(Cl)cc3Cl)CC2)sc1C(=O)c1c(F)cccc1F [Example P57]	9	31
−16	15	Nc1nc(NC2CCN(S(=O)(=O)c3ccc(O)c(C(=O)O)c3)CC2)sc1C(=O)c1c(F)cccc1F [Example P58]	14	30
17	33	COc1ccc(C)cc1S(=O)(=O)N1CCC(Nc2nc(N)c(C(=O)c3c(F)cccc3F)s2)CC1 [Example P59]	19	24
